IC50 data for 20 compounds are collected here from patent EP1984353B1, “AURORA KINASE MODULATORS AND METHOD OF USE” (Amgen, Inc, priority 2006, dated 2007).

Read-outs that look alike come from different tables or passages of the source.

The target of one assay is T1, AuroraA-TPX2 (Homo sapiens, UniProt O14965).
T1 construct: 20 µL of AuroraA-TPX2 KD GST; GST
T1 sequence (O14965 133-383 limits assumed): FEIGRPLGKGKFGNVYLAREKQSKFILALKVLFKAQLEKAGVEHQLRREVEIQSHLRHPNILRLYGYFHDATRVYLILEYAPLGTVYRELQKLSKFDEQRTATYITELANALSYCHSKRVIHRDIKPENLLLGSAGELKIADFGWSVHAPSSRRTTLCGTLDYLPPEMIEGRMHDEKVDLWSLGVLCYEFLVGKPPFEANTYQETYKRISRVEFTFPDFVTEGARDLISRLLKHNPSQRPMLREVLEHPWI
T1 sequence (Q9ULW0 1-43 partner limits assumed): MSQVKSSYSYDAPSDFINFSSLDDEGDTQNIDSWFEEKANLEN
The assay can be described thus: AuroraA-TPX2 Homogeneous Time Resolved Fluorescent (HTRF) kinase assay. The format is biochemical. The note with it: average, read-out: AurA/TP X2_ IC50_IP (Avg). On the procedure: AuroraA-TPX2-Homogeneous Time Resolved Fluorescent (HTRF) Kinase Assay:
The Aurora-A HTRF assay begins with Aurora-A in the presence of ATP phosphorylating the biotinylated peptide PLK. The reaction incubates for about 120 min. Detection reagents are added to quench the reaction. These agents stop the reaction by diluting out the enzyme and chelating the metals due to the presence of EDTA. After addition, the assay is incubated overnight to allow the detection reagents to equilibrate.
The final concentration of PLK is about 1 µM. […] Buffer conditions are as follows: 60mM HEPES pH 7.5, 25mM NaCl, 10mM MgCl, 2mM DTT, 0.05% BSA.
The assay is quenched and stopped with 160 µL, of detection reagent. Detection reagents are as follows: Buffer made of 50mM Tris, pH 7.5, 100mM NaCl, 3mM EDTA, 0.05% BSA, 0.1% Tween20. Added to this buffer prior to reading is Steptavidin allophycocyanin (SA-APC) at a final conc in the assay of 0.0005 mg/mL, and europilated anti-phosphoPLK Ab (Eu-anti-PLK) at a final conc of 0.02 nM.
The assay plate is read in either a Discovery or a RubyStar. The eu-anti-PLK is excited at 320 nm and emits at 615 nm to excite the SA-APC which in turn emits at 655 nm.

A further assay concerns the target T2, AuroraB (Homo sapiens, UniProt Q96GD4).
T2 construct: 20 µL of AuroraB FL His; His
The assay can be described thus: AuroraB Homogeneous Time Resolved Fluorescent (HTRF) kinase assay. It counts as biochemical. The note with it: average, read-out: AurB_ _IC50_IP (Avg). On the procedure:
AuroraB-Homogeneous Time Resolved Fluorescent (HTRF) Kinase Assay:
The AuroraB HTRF assay begins with AuroraB in the presence of ATP phosphorylating the biotinylated peptide Histone H3. The reaction incubates for about 90 min. the reaction is quentched by addition of detection reagents, which stop the reaction by diluting out the enzyme and chelating the metals due to the presence of EDTA. After addition, the assay is incubated for about 60 min to allow detection reagents to equilibrate.
The AuroraB HTRF assay comprises 1 µL of compound in 100% DMSO, 20 µL of ATP and biotinylated Histone H3, and 20 µL of AuroraB FL His for a final volume of 41 µL. The final concentration of Histone H3 is 0.1 µM. The final concentration of ATP is 23 µM (Km(app) = 23 µM+/-2.6) and the final concentration of AuroraB is 400 pM. Buffer conditions are as follows: 50mM HEPES pH 7.5, 5mM NaCl, 0.5mM MgCl, 0.5mM MnCl, 2mM DTT, 0.05% BSA.
The assay is quenched and stopped with 160 µL of detection reagent. Detection reagents are as follows: Buffer made of 50mM Tris, pH 7.5, 100mM NaCl, 3mM EDTA, 0.05% BSA, 0.1% Tween20. Added to this buffer prior to reading is Steptavidin allophycocyanin (SA-APC) at a final conc in the assay of 0.001 mg/mL, and europilated anti-phosphoHistoneH3 Ab (Eu-anti-HisH3) at a final conc of 0.064 nM.
The assay plate is read in either a Discovery or a RubyStar. The eu-anti-HisH3 is excited at 320 nm and emits at 615 nm to excite the SA-APC which in turn emits at 655 nm. The ratio of SA-APC at 655 nm (excited due to close proximity to the Eu-anti-HisH3 because of phosphorylation of the peptide) to free Eu-anti-HisH3 at 615 nm will give substrate phosphorylation.

Where [1] appears, read: given as numbers, unit inferred.

T2 sequence (Q96GD4 whole entry): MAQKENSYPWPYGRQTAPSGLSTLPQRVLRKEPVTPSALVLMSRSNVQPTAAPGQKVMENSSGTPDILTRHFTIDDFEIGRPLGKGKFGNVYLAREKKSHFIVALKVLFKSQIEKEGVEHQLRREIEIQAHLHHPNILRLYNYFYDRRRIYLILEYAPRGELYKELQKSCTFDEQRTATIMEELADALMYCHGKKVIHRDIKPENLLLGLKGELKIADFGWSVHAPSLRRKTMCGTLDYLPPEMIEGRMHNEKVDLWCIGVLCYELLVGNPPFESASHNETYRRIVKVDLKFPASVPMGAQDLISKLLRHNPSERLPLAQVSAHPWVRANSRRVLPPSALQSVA

On to `Cc1csc(-c2nnc(Nc3ccc(Oc4ncccc4-c4ccnc5c4CCN5)cc3)c3ccccc23)n1` [compound 288, N-(4-((3-(2,3-dihydro-1H-pyrrolo[2,3-b]pyridin-4-yl)-2-pyridinyl)oxy)phenyl)-4-(4-methyl-1,3-thiazol-2-yl)-1-phthalazinamine], for which the IC50 on AuroraA-TPX2 (given as class symbols) is no more than 100 nM; at AuroraB (given as class symbols) it was 500 to 2500 nM.

As for `Cc1ccc(-c2nnc(Nc3ccc(Oc4ncccc4-c4ccnc(N)n4)nc3)c3ccccc23)nc1` [compound 289, N-(6-((3-(2-amino-4-pyrimidinyl)-2-pyridinyl)oxy)-3-pyridinyl)-4-(5-methyl-2-pyridinyl)-1-phthalazinamine], the IC50 came to 24.1 nM at AuroraA-TPX2 (setting [1]) and 1.9 nM on AuroraB (setting [1]).

As for `CN1CCN(CCCNc2ncc(F)c(-c3cccnc3Oc3ccc(Nc4nnc(-c5ccccc5)c5ccccc45)cc3)n2)CC1` [compound 291, N-(4-((3-(5-fluoro-2-((3-(4-methyl-1-piperazinyl)propyl)amino)-4-pyrimidinyl)-2-pyridinyl)oxy)phenyl)-4-phenyl-1-phthalazinamine], the figures for the IC50 at AuroraA-TPX2 (setting [1]) and on AuroraB (setting [1]) were 15.7 nM and 3 nM, respectively.

In the case of `COc1cccc(-c2nnc(Nc3ccc(Oc4ncccc4-c4ccnc(N)n4)cc3)c3ccccc23)n1` [compound 292, N-(4-((3-(2-amino-4-pyrimidinyl)-2-pyridinyl)oxy)phenyl)-4-(6-(methyloxy)-2-pyridinyl)-1-phthalazinamine], the IC50 at AuroraA-TPX2 (given as class symbols) and on AuroraB (given as class symbols) was no more than 100 nM in each case.

Turning to `COc1cccc(-c2nnc(Nc3ccc(Oc4ncccc4-c4ccnc(N)n4)nc3)c3ccccc23)n1` [compound 293, N-(6-((3-(2-amino-4-pyrimidinyl)-2-pyridinyl)oxy)-3-pyridinyl)-4-(6-(methyloxy)-2-pyridinyl)-1-phthalazinamine], the IC50 on AuroraA-TPX2 (given as class symbols) and at AuroraB (given as class symbols) was no more than 100 nM each time.

For the compound `c1ccc(-c2nnc(Nc3ccc(Oc4ncccc4-c4ccnc(NCCCN5CCC5)n4)cc3)c3ccccc23)cc1` [compound 295, N-(4-((3-(2-((3-(1-azetidinyl)propyl)amino)-4-pyrimidinyl)-2-pyridinyl)oxy)phenyl)-4-phenyl-1-phthalazinamine], the IC50 on AuroraA-TPX2 (given as class symbols) was 100 to 500 nM; on AuroraB (given as class symbols), no more than 100 nM.

On to `CC(=O)OCc1cccc(-c2nnc(Nc3ccc(Oc4ncccc4-c4ccnc(N)n4)cc3)c3ccccc23)n1` [compound 296, (6-(4-((4-((3-(2-amino-4-pyrimidinyl)-2-pyridinyl)oxy)phenyl)amino)-1-phthalazinyl)-2-pyridinyl)methyl acetate], for which the IC50 at AuroraA-TPX2 (given as class symbols) and at AuroraB (given as class symbols) was no more than 100 nM each time.

Regarding `Nc1nccc(-c2cccnc2Oc2ccc(Nc3nnc(-c4cccc(CO)n4)c4ccccc34)cc2)n1` [compound 297, (6-(4-((4-((3-(2-amino-4-pyrimidinyl)-2-pyridinyl)oxy)phenyl)amino)-1-phthalazinyl)-2-pyridinyl)methanol], the IC50 on AuroraA-TPX2 (given as class symbols) and on AuroraB (given as class symbols) was no more than 100 nM each time.

As to `ONc1nccc(-c2cccnc2Oc2ccc(Nc3nnc(-c4ccccc4)c4ccccc34)cc2)n1` [compound 310, N-(4-((3-(2-(hydroxyamino)-4-pyrimidinyl)-2-pyridinyl)oxy)phenyl)-4-phenyl-1-phthalazinamine], the IC50 on AuroraA-TPX2 (given as class symbols) and at AuroraB (given as class symbols) was no more than 100 nM throughout.

Regarding `c1ccc(-c2nnc(Nc3ncc(Oc4ncccc4-c4ccncc4)cn3)c3ccccc23)cc1` [compound 311, N-(5-(3,4'-bipyridin-2-yloxy)-2-pyrimidinyl)-4-phenyl-1-phthalazinamine], the IC50 at AuroraA-TPX2 (given as class symbols) and at AuroraB (given as class symbols) was 500 to 2500 nM throughout.

For `Cc1csc(-c2nnc(Nc3ccc(Oc4ncccc4-c4c[nH]nc4N)c(F)c3)c3ccccc23)n1` [compound 312, N-(4-((3-(3-amino-1H-pyrazol-4-yl)-2-pyridinyl)oxy)-3-fluorophenyl)-4-(4-methyl-1,3-thiazol-2-yl)-1-phthalazinamine], the IC50 on AuroraA-TPX2 (given as class symbols) and on AuroraB (given as class symbols) was no more than 100 nM each time.

Take `Nc1nccc(-c2cccnc2Oc2ccc(Nc3nnc(-c4ccccc4)c4ccsc34)cn2)n1` [compound 313, N-(6-((3-(2-amino-4-pyrimidinyl)-2-pyridinyl)oxy)-3-pyridinyl)-4-phenylthieno[2,3-d]pyridazin-7-amine]: the IC50 at AuroraA-TPX2 (given as class symbols) and on AuroraB (given as class symbols) was no more than 100 nM each time.

On to `Nc1n[nH]cc1-c1cccnc1Oc1ccc(Nc2nnc(-c3ccccc3)c3ccccc23)cc1F` [compound 314, N-(4-((3-(3-amino-1H-pyrazol-4-yl)-2-pyridinyl)oxy)-3-fluorophenyl)-4-phenyl-1-phthalazinamine], for which the results for the IC50 on AuroraA-TPX2 (setting [1]) and at AuroraB (setting [1]) were 4.5 nM and 2.4 nM, respectively.

In the case of `Nc1nccc(-c2cccnc2Oc2ccc(Nc3nnc(-c4ccc(Cl)cc4)c4ccccc34)cn2)n1` [compound 315, N-(6-((3-(2-amino-4-pyrimidinyl)-2-pyridinyl)oxy)-3-pyridinyl)-4-(4-chlorophenyl)-1-phthalazinamine], the IC50 on AuroraA-TPX2 (given as class symbols) and at AuroraB (given as class symbols) was no more than 100 nM each time.

In the case of `CS(=O)(=O)c1cccc(-c2nnc(Nc3ccc(Oc4ncccc4-c4ccnc(N)n4)cc3)c3ccccc23)c1` [compound 316, N-(4-((3-(2-amino-4-pyrimidinyl)-2-pyridinyl)oxy)phenyl)-4-(3-(methylsulfonyl)phenyl)-1-phthalazinamine], the IC50 on AuroraA-TPX2 (given as class symbols) and at AuroraB (given as class symbols) was no more than 100 nM in each case.

As to `COc1cccc(-c2nnc(Nc3ccc(Oc4ncccc4-c4c[nH]nc4N)cc3)c3ccccc23)c1` [compound 317, N-(4-((3-(3-amino-1H-pyrazol-4-yl)-2-pyridinyl)oxy)phenyl)-4-(3-(methyloxy)phenyl)-1-phthalazinamine], the IC50 at AuroraA-TPX2 (given as class symbols) and at AuroraB (given as class symbols) was no more than 100 nM throughout.

Consider `CS(=O)(=O)c1cccc(-c2nnc(Nc3ccc(Oc4ncccc4-c4ccnc(N)n4)nc3)c3ccccc23)c1` [compound 318, N-(6-((3-(2-amino-4-pyrimidinyl)-2-pyridinyl)oxy)-3-pyridinyl)-4-(3-(methylsulfonyl)phenyl)-1-phthalazinamine], for which the IC50 at AuroraA-TPX2 (setting [1]) was 23.8 nM; at AuroraB (setting [1]), 5.6 nM.

As to `COc1ccc(-c2nnc(Nc3ccc(Oc4ncccc4-c4ccnc(N)n4)nc3)c3ccccc23)cc1` [compound 319, N-(6-((3-(2-amino-4-pyrimidinyl)-2-pyridinyl)oxy)-3-pyridinyl)-4-(4-(methyloxy)phenyl)-1-phthalazinamine], the IC50 at AuroraA-TPX2 (given as class symbols) and on AuroraB (given as class symbols) was no more than 100 nM each time.

Take `COc1ccc(-c2nnc(Nc3ccc(Oc4ncccc4-c4ccnc(N)n4)cc3)c3ccccc23)cc1` [compound 320, N-(4-((3-(2-amino-4-pyrimidinyl)-2-pyridinyl)oxy)phenyl)-4-(4-(methyloxy)phenyl)-1-phthalazinamine]: the IC50 on AuroraA-TPX2 (given as class symbols) and at AuroraB (given as class symbols) was no more than 100 nM each time.

For `CCOc1ccc(-c2nnc(Nc3ccc(Oc4ncccc4-c4ccnc(N)n4)cc3)c3ccccc23)cc1` [compound 321, N-(4-((3-(2-amino-4-pyrimidinyl)-2-pyridinyl)oxy)phenyl)-4-(4-(ethyloxy)phenyl)-1-phthalazinamine], the IC50 on AuroraA-TPX2 (given as class symbols) and at AuroraB (given as class symbols) was no more than 100 nM in each case.
